According to patent publication US7273885B2, “Inhibitors of serine proteases, particularly HCV NS3-NS4A protease” (Vertex Pharmaceuticals Incorporated, priority 2002, dated 2007):
Read-outs that look alike come from different tables or passages of the source. *1 amine or outer side, *2 acyl side, *3 side chain or, on linkers, in order; H or OH if unused. Where a SMILES comes first, the peptide text is derived from it. [ ]: non-standard residue; d: D form. The star is where a group is joined. Oic = O=C(O)[C@@H]1C[C@@H]2CCCC[C@@H]2N1; X2 = CCC[C@H](N[*:1])C(=O)C(=O)[*:2]; Isopropoxycarbonyl = CC(C)OC(=O)*; Pyrazinecarbonyl = O=C(c1cnccn1)*; X1 = CCCC(N[*:1])C(=O)C(=O)[*:2]; Chg = N[C@H](C(=O)O)C1CCCCC1; Tle = CC(C)(C)[C@H](N)C(=O)O; Hiv = CC(C)[C@H](O)C(=O)O; NHcPr = C1CC1N*

Legend:
[1] = target: HCV NS3-NS4A protease (tNS3 with KK4A) (Hepatitis C virus genotype 1a, UniProt P27958); test: HCV Ki assay (HPLC microbore separation of 5AB substrate and products); format: biochemical
Protocol: HPLC Microbore Method for Separation of 5AB Substrate and Products
• Substrate: • NH2-Glu-Asp-Val-Val-(alpha)Abu-Cys-Ser-Met-Ser-Tyr-COOH
A stock solution of 20 mM 5AB (or concentration of your choice) was made in DMSO w/ 0.2M DTT. This was stored in aliquots at −20 C.
Buffer: 50 mM HEPES, pH 7.8; 20% glycerol; 100 mM NaCl
Total assay volume was 100 μL
The buffer, KK4A, DTT, and tNS3 were combined; distributed 78 μL each into wells of 96 well plate. This was incubated at 30 C for ˜5–10 min.
2.5 μL of appropriate concentration of test compound was dissolved in DMSO (DMSO only for control) and added to each well. This was incubated at room temperature for 15 min.
Initiated reaction by addition of 20 μL of 250 μM 5AB substrate (25 μM concentration is equivalent or slightly lower than the Km for 5AB).
Incubated for 20 min at 30 C.
Terminated reaction by addition of 25 μL of 10% TFA
Transferred 120 μL aliquots to HPLC vials
Separated SMSY product from substrate and KK4A by the following method:
Microbore Separation Method:
Instrumentation: Agilent 1100
• Degasser G1322A • Binary pump G1312A • Autosampler G1313A • Column thermostated chamber G1316A • Diode array detector G1315A Column:
Phenomenex Jupiter; 5 micron C18; 300 angstroms; 150×2 mm; P/O 00F-4053-B0 • Column thermostat: 40 C • Injection volume: 100 μL • Solvent A=HPLC grade water+0.1% TFA • Solvent B=HPLC grade acetonitrile+0.1% TFA
• Stop time: 17 min • Post-run time: 10 min.

[2] = system: Cells containing hepatitis C virus (HCV) replicon; test: HCV replicon cell assay (Taqman RT-PCR of HCV RNA); format: cell-based; settings: 50% inhibition of HCV RNA level, 48-hour incubation, HCV replicon cells, read-out: IC50
Protocol: HCV Replicon Cell Assay Protocol
Cells containing hepatitis C virus (HCV) replicon were maintained in DMEM containing 10% fetal bovine serum (FBS), 0.25 mg per ml of G418, with appropriate supplements (media A).
On day 1, replicon cell monolayer was treated with a trypsin:EDTA mixture, removed, and then media A was diluted into a final concentration of 100,000 cells per ml wit. 10,000 cells in 100 ul were plated into each well of a 96-well tissue culture plate, and cultured overnight in a tissue culture incubator at 37° C.
On day 2, compounds (in 100% DMSO) were serially diluted into DMEM containing 2% FBS, 0.5% DMSO, with appropriate supplements (media B). The final concentration of DMSO was maintained at 0.5% throughout the dilution series.
Media on the replicon cell monolayer was removed, and then media B containing various concentrations of compounds was added. Media B without any compound was added to other wells as no compound controls.
Cells were incubated with compound or 0.5% DMSO in media B for 48 hours in a tissue culture incubator at 37° C. At the end of the 48-hour incubation, the media was removed, and the replicon cell monolayer was washed once with PBS and stored at −80° C. prior to RNA extraction.
Culture plates with treated replicon cell monolayers were thawed, and a fixed amount of another RNA virus, such as Bovine Viral Diarrhea Virus (BVDV) was added to cells in each well. RNA extraction reagents (such as reagents from RNeasy kits) were added to the cells immediately to avoid degradation of RNA. Total RNA was extracted according the instruction of manufacturer with modification to improve extraction efficiency and consistency. Finally, total cellular RNA, including HCV replicon RNA, was eluted and stored at −80° C. until further processing.
A Taqman real-time RT-PCR quantification assay was set up with two sets of specific primers and probe. One was for HCV and the other was for BVDV. Total RNA extractants from treated HCV replicon cells was added to the PCR reactions for quantification of both HCV and BVDV RNA in the same PCR well. Experimental failure was flagged and rejected based on the level of BVDV RNA in each well. The level of HCV RNA in each well was calculated according to a standard curve run in the same PCR plate. The percentage of inhibition or decrease of HCV RNA level due to compound treatment was calculated using the DMSO or no compound control as 0% of inhibition. The IC50 (concentration at which 50% inhibition of HCV RNA level is observed) was calculated from the titration curve of any given compound.

Chain of HCV NS3-NS4A protease (tNS3 with KK4A) (P27958 1027-1208): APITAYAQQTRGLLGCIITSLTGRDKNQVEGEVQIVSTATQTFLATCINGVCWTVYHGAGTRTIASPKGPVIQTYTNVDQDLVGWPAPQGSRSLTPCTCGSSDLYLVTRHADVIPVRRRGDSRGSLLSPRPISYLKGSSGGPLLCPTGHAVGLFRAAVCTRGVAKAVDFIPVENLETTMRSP

| SMILES | Ki [1] [nM] | IC50 [2] [nM] | Ki ([1]; 25 nM tNS3, 25 μM KK4A, 25 μM 5AB substrate, 20 min at 30 C, read-out: Ki) [nM] |
| --- | --- | --- | --- |
| CCC[C@H](NC(=O)[C@@H]1C[C@@H]2CCCC[C@@H]2N1C(=O)[C@@H](NC(=O)[C@@H](NC(=O)c1cc2cc(C(C)=O)ccc2[nH]1)C1CCCCC1)C(C)(C)C)C(=O)C(=O)NC1CC1 [Compound 40a, 5-Acetyl-1H-indole-2-carboxylic acid (cyclohexyl-{1-[2-(1-cyclopropylaminooxalyl-butylcarbamoyl)-octahydro-indole-1-carbonyl]-2,2-dimethyl-propylcarbamoyl}-methyl)-amide] | < 500 | < 500 |  |
| CCC[C@@H](NC(=O)[C@@H]1C[C@@H]2CCCC[C@@H]2N1C(=O)[C@@H](NC(=O)[C@@H](NC(=O)c1[nH]c(C)c(C)c1C(C)=O)C1CCCCC1)C(C)(C)C)C(=O)C(=O)NC1CC1 [Compound 41a] | 1000 to 5000 | < 500 |  |
| CCC[C@H](NC(=O)[C@@H]1C[C@@H](Oc2ncc(Cl)cn2)CN1C(=O)[C@@H](NC(=O)[C@@H](NC(=O)c1[nH]c(C)c(C)c1C(C)=O)C1CCCCC1)C(C)(C)C)C(=O)C(=O)NC1CC1 [Compound 67] | < 500 | < 500 |  |
| CCC[C@H](NC(=O)[C@@H]1[C@H]2CCC[C@H]2CN1C(=O)[C@@H](NC(=O)[C@@H](NC(=O)c1[nH]c(C)c(C)c1C(C)=O)C1CCCCC1)C(C)(C)C)C(=O)C(=O)NC1CC1 [Compound 68] | < 500 | < 500 |  |
| CCC[C@H](NC(=O)[C@@H]1[C@@H](C(C)C)CCN1C(=O)[C@@H](NC(=O)[C@@H](NC(=O)c1[nH]c(C)c(C)c1C(C)=O)C1CCCCC1)C(C)(C)C)C(=O)C(=O)NC1CC1 [Compound 64] | < 500 | < 500 |  |
| CCC[C@H](NC(=O)[C@@H]1C[C@@H]2CCCC[C@@H]2N1C(=O)[C@@H](NC(=O)[C@@H](NC(=O)[C@@H](O)C(C)C)C1CCCCC1)C(C)(C)C)C(=O)C(=O)NC1CC1 [Compound 23a] (H-[Hiv][Chg][Tle][Oic][X2]-NHcPr) | < 500 | 1000 to 5000 |  |
| CCCC(NC(=O)[C@@H]1C[C@@H]2CCCC[C@@H]2N1C(=O)[C@@H](NC(=O)[C@@H](NC(=O)c1cnccn1)C(C)C)C(C)C)C(=O)C(=O)N[C@@H](Cc1ccccc1)C(=O)O (some centres unmarked) [Compound 1a] (Pyrazinecarbonyl-VV[Oic][X1]F-OH) | < 500 |  |  |
| CCC[C@H](NC(=O)[C@@H]1C[C@@H]2CCCC[C@@H]2N1C(=O)[C@@H](NC(=O)[C@@H](NC(=O)c1[nH]ncc1Cl)C1CCCCC1)C(C)(C)C)C(=O)C(=O)NC1CC1 [Compound 38a] | 500 to 1000 |  |  |
| CCCC(NC(=O)[C@@H]1C[C@@H]2CCCC[C@@H]2N1C(=O)[C@@H](NC(=O)[C@@H](NC(=O)[C@H](C)NC(=O)OC(C)C)C1CCCCC1)C(C)C)C(=O)C(=O)NC1CC1 (some centres unmarked) [Compound 5a] (Isopropoxycarbonyl-A[Chg]V[Oic][X1]-NHcPr) | < 500 |  |  |
| CCCC(NC(=O)[C@@H]1C[C@@H]2CCCC[C@@H]2N1C(=O)[C@@H](NC(=O)[C@@H](NC(=O)[C@H](C)NC(=O)OC(C)C)C1CCCCC1)C(C)(C)C)C(=O)C(=O)NC1CC1 (some centres unmarked) [Compound 6a] (Isopropoxycarbonyl-A[Chg][Tle][Oic][X1]-NHcPr) | < 500 |  |  |
| CCC[C@H](NC(=O)[C@@H]1C[C@@H]2CCCC[C@@H]2N1C(=O)[C@@H](NC(=O)[C@@H](NC(=O)c1cnccn1)C1CCCCC1)C(C)(C)C)C(=O)C(=O)N(C)C [Compound 50a] | 1000 to 5000 |  |  |
| CCC[C@H](NC(=O)[C@@H]1C[C@@H]2CCCC[C@@H]2N1C(=O)[C@@H](NC(=O)[C@@H](NC(=O)c1[nH]c(C)c(C(C)=O)c1C)C1CCCCC1)C(C)(C)C)C(=O)C(=O)NC1CC1 [Compound 29a] | < 500 | 500 to 1000 |  |
| CCC[C@H](NC(=O)[C@@H]1C[C@@H]2CCCC[C@@H]2N1C(=O)[C@@H](NC(=O)[C@@H](NC(=O)C(=O)C(C)C)C1CCCCC1)C(C)(C)C)C(=O)C(=O)NC1CC1 [Compound 24a] | < 500 | 1000 to 5000 |  |
| CCC[C@H](NC(=O)[C@@H]1[C@@H](C2CCCCC2)CCN1C(=O)[C@@H](NC(=O)[C@@H](NC(=O)c1[nH]c(C)c(C)c1C(C)=O)C1CCCCC1)C(C)(C)C)C(=O)C(=O)NC1CC1 [Compound 63] | < 500 | 500 to 1000 |  |
| CCC[C@H](NC(=O)[C@@H]1C[C@@H]2CCCC[C@@H]2N1C(=O)[C@@H](NC(=O)[C@@H](NC(=O)c1ccc[nH]1)C1CCCCC1)C(C)(C)C)C(=O)C(=O)NC1CC1 [Compound 11a] | < 500 | < 500 |  |
| CCC[C@H](NC(=O)[C@@H]1C[C@@H]2CCCC[C@@H]2N1C(=O)[C@@H](NC(=O)[C@@H](NC(=O)c1[nH]c(C)c(C)c1C(C)=O)C1CCCCC1)C(C)(C)C)C(=O)C(=O)C(C)C [Compound 62a] | 500 to 1000 |  |  |
| CCC[C@H](NC(=O)[C@@H]1C[C@@H]2CCCC[C@@H]2N1C(=O)[C@@H](NC(=O)[C@@H](NC(=O)c1cc(C(C)(C)C)n[nH]1)C1CCCCC1)C(C)(C)C)C(=O)C(=O)NC1CC1 [Compound 16a] | < 500 | 1000 to 5000 |  |
| CCCC(NC(=O)[C@@H]1C[C@@H]2CCCC[C@@H]2N1C(=O)[C@@H](NC(=O)[C@@H](NC(=O)c1cnccn1)C(C)C)C(C)C)C(=O)C(=O)NC1CC1 (some centres unmarked) [Compound 2a] | 500 to 1000 |  |  |
| CCC[C@H](NC(=O)[C@@H]1C[C@@H]2CCCC[C@@H]2N1C(=O)[C@@H](NC(=O)[C@@H](NC(=O)c1ccnn1C)C1CCCCC1)C(C)(C)C)C(=O)C(=O)NC1CC1 [Compound 17a] | 1000 to 5000 |  |  |
| CCC[C@H](NC(=O)[C@@H]1C[C@@H]2CCCC[C@@H]2N1C(=O)[C@@H](NC(=O)[C@@H](NC(=O)c1[nH]c(C)c(C)c1C(C)=O)C(C)C)C(C)(C)C)C(=O)C(=O)NC1CC1 [Compound 58a] | < 500 |  |  |
| CCC[C@H](NC(=O)[C@@H]1C[C@@H]2CCCC[C@@H]2N1C(=O)[C@@H](NC(=O)[C@@H](NC(=O)c1[nH]c(C)c(C)c1C(C)=O)C(C)CC)C(C)(C)C)C(=O)C(=O)NC1CC1 (some centres unmarked) [Compound 59a] | < 500 |  |  |
| CCCC(NC(=O)[C@@H]1C[C@@H]2CCCC[C@@H]2N1C(=O)[C@@H](NC(=O)[C@@H](NC(=O)c1cnccn1)C1CCCCC1)C(C)(C)C)B1O[C@@H]2C[C@@H]3C[C@@H](C3(C)C)[C@]2(C)O1 (some centres unmarked) [Compound 56a] |  |  | < 500 |
| CCC[C@H](NC(=O)[C@@H]1C[C@@H]2CCCC[C@@H]2N1C(=O)[C@@H](NC(=O)[C@H](C1CCCCC1)N1C(=O)c2ccccc2C1=O)C(C)(C)C)C(=O)C(=O)NC1CC1 [Compound 57a] | < 500 |  |  |
| CCC[C@H](NC(=O)[C@@H]1C[C@@H]2CCCC[C@@H]2N1C(=O)[C@@H](NC(=O)[C@@H](NC(=O)c1nccnc1C(N)=O)C1CCCCC1)C(C)(C)C)C(=O)C(=O)NC1CC1 [Compound 28a] | < 500 |  |  |
| CCC[C@H](NC(=O)[C@@H]1C[C@@H]2CCCC[C@@H]2N1C(=O)[C@@H](NC(=O)[C@@H](NC(=O)c1cnccn1)C1CCCCC1)C(C)(C)C)C(=O)C(=O)NCC(=O)N(C)C [Compound 54a] (Pyrazinecarbonyl-[Chg][Tle][Oic][X2]G-NMe2) | 1000 to 5000 |  |  |
| CCCC(NC(=O)[C@@H]1C[C@@H]2CCCC[C@@H]2N1C(=O)[C@@H](NC(=O)[C@@H](NC(=O)c1cnccn1)C1CCCCC1)C(C)(C)C)C(=O)C(=O)N[C@@H](C)c1ccccc1 (some centres unmarked) [Compound 7a] | < 500 |  |  |
| CCCC(NC(=O)[C@@H]1C[C@@H]2CCCC[C@@H]2N1C(=O)[C@@H](NC(=O)[C@@H](NC(=O)C1CSC(=O)N1)C1CCCCC1)C(C)(C)C)C(=O)C(=O)N[C@@H](C)c1ccccc1 (some centres unmarked) [Compound 8a] | < 500 |  |  |
